Laboratory results published in the supplement of paper PMC10307832.

compound: Cn1nnc2c(C(N)=O)ncn2c1=O [Temozolomide] + C[C@@H](Oc1cc(-c2cnn(C3CCNCC3)c2)cnc1N)c1c(Cl)ccc(F)c1Cl [Crizotinib] (partner 1 µM); assay: relative viability (nuclei count vs DMSO), 5 days (fraction); higher = more cells survive; details: first compound 20 µM
Outline: (§1)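 Relative viability equals treated-well nuclei counts divided by vehicle-well nuclei counts. Counts came from 4× images of lung cancer cell lines grown in 1536-well plates for 5 days after pin-tool dosing on the day after seeding. Dosing used one drug alone or a fixed anchor-drug dose plus five library-drug doses (not always all listed) in √10 steps, and values are medians of duplicate plates.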

Question: For NCI-H727, which relative viability is on record?
Answer: 0.763

Question: Which relative viability does the source give for NCI-H838 here?
Answer: 0.869

Question: How did the relative viability turn out when NCI-H1355 was run?
Answer: 0.97

Question: With NCI-H1437 as the cell line, how does the relative viability read?
Answer: 0.999

Question: NCI-H1650 was tested. Which relative viability did it give?
Answer: 0.799

Question: Which relative viability does the source give for NCI-H1651 here?
Answer: 0.864

Question: How did the relative viability turn out when NCI-H1666 was run?
Answer: 0.518

Question: NCI-H1734 was tested. Which relative viability did it give?
Answer: 0.656

compound: C[C@@H](C(=O)N[C@@H](C1CCCCC1)C(=O)N2CCC[C@H]2C(=O)N[C@@H]3[C@@H](CC4=CC=CC=C34)OCC#CC#CCO[C@@H]5CC6=CC=CC=C6[C@@H]5NC(=O)[C@@H]7CCCN7C(=O)[C@H](C8CCCCC8)NC(=O)[C@H](C)NC)NC [AZD5582] + Nc1ncn([C@H]2C[C@H](O)[C@@H](CO)O2)c(=O)n1 [Decitabine] (partner 2 µM); assay: as above; details: first compound 0.001581 µM
Outline: as §1

Question: NCI-H23 was tested. Which relative viability did it give?
Answer: 0.334

Question: Which relative viability does the source give for NCI-H322M here?
Answer: 0.762

Question: With NCI-H441 as the cell line, how does the relative viability read?
Answer: 0.211

Question: For NCI-H460, which relative viability is on record?
Answer: 0.424

Question: With NCI-H520 as the cell line, how does the relative viability read?
Answer: 0.504

Question: How did the relative viability turn out when NCI-H596 was run?
Answer: 1.02

Question: NCI-H647 was tested. Which relative viability did it give?
Answer: 0.426

Question: With NCI-H650 as the cell line, how does the relative viability read?
Answer: 0.327

Question: Which relative viability does the source give for NCI-H661 here?
Answer: 0.525

Question: For NCI-H727, which relative viability is on record?
Answer: 0.965

Question: NCI-H838 was tested. Which relative viability did it give?
Answer: 0.451

Question: With NCI-H1355 as the cell line, how does the relative viability read?
Answer: 0.359

Question: With NCI-H1437 as the cell line, how does the relative viability read?
Answer: 0.543

Question: How did the relative viability turn out when NCI-H1650 was run?
Answer: 0.389

Question: Which relative viability does the source give for NCI-H1651 here?
Answer: 0.572

Question: With NCI-H1666 as the cell line, how does the relative viability read?
Answer: 0.658

Question: For NCI-H1734, which relative viability is on record?
Answer: 0.479

same assay, conditions: first compound 0.005 µM

Question: NCI-H23 was tested. Which relative viability did it give?
Answer: 0.293

Question: How did the relative viability turn out when NCI-H322M was run?
Answer: 0.739

Question: How did the relative viability turn out when NCI-H441 was run?
Answer: 0.23

Question: How did the relative viability turn out when NCI-H460 was run?
Answer: 0.491

Question: NCI-H520 was tested. Which relative viability did it give?
Answer: 0.515

Question: NCI-H647 was tested. Which relative viability did it give?
Answer: 0.366

Question: How did the relative viability turn out when NCI-H650 was run?
Answer: 0.3

Question: For NCI-H661, which relative viability is on record?
Answer: 0.571

Question: With NCI-H727 as the cell line, how does the relative viability read?
Answer: 0.856

Question: How did the relative viability turn out when NCI-H838 was run?
Answer: 0.41

Question: Which relative viability does the source give for NCI-H1355 here?
Answer: 0.317

Question: Which relative viability does the source give for NCI-H1437 here?
Answer: 0.554

Question: How did the relative viability turn out when NCI-H1650 was run?
Answer: 0.366

Question: With NCI-H1651 as the cell line, how does the relative viability read?
Answer: 0.571

Question: How did the relative viability turn out when NCI-H1666 was run?
Answer: 0.73

Question: Which relative viability does the source give for NCI-H1734 here?
Answer: 0.527

same assay, conditions: first compound 0.01581 µM

Question: Which relative viability does the source give for NCI-H23 here?
Answer: 0.27

Question: NCI-H322M was tested. Which relative viability did it give?
Answer: 0.652

Question: Which relative viability does the source give for NCI-H441 here?
Answer: 0.21

Question: How did the relative viability turn out when NCI-H460 was run?
Answer: 0.466

Question: How did the relative viability turn out when NCI-H520 was run?
Answer: 0.509

Question: With NCI-H596 as the cell line, how does the relative viability read?
Answer: 1.06

Question: NCI-H647 was tested. Which relative viability did it give?
Answer: 0.417

Question: For NCI-H650, which relative viability is on record?
Answer: 0.321

Question: How did the relative viability turn out when NCI-H661 was run?
Answer: 0.573

Question: With NCI-H727 as the cell line, how does the relative viability read?
Answer: 0.801

Question: With NCI-H838 as the cell line, how does the relative viability read?
Answer: 0.476

Question: NCI-H1355 was tested. Which relative viability did it give?
Answer: 0.357

Question: Which relative viability does the source give for NCI-H1437 here?
Answer: 0.595

Question: With NCI-H1650 as the cell line, how does the relative viability read?
Answer: 0.51

Question: For NCI-H1651, which relative viability is on record?
Answer: 0.559

Question: NCI-H1666 was tested. Which relative viability did it give?
Answer: 0.626

Question: How did the relative viability turn out when NCI-H1734 was run?
Answer: 0.484

same assay, conditions: first compound 0.05 µM

Question: With NCI-H23 as the cell line, how does the relative viability read?
Answer: 0.278

Question: For NCI-H322M, which relative viability is on record?
Answer: 0.737

Question: NCI-H441 was tested. Which relative viability did it give?
Answer: 0.225

Question: Which relative viability does the source give for NCI-H460 here?
Answer: 0.577

Question: NCI-H520 was tested. Which relative viability did it give?
Answer: 0.557

Question: How did the relative viability turn out when NCI-H596 was run?
Answer: 0.39

Question: With NCI-H647 as the cell line, how does the relative viability read?
Answer: 0.331

Question: NCI-H650 was tested. Which relative viability did it give?
Answer: 0.306

Question: For NCI-H661, which relative viability is on record?
Answer: 0.556

Question: With NCI-H727 as the cell line, how does the relative viability read?
Answer: 0.921

Question: How did the relative viability turn out when NCI-H838 was run?
Answer: 0.396

Question: NCI-H1355 was tested. Which relative viability did it give?
Answer: 0.364

Question: With NCI-H1437 as the cell line, how does the relative viability read?
Answer: 0.565

Question: NCI-H1650 was tested. Which relative viability did it give?
Answer: 0.279

Question: With NCI-H1651 as the cell line, how does the relative viability read?
Answer: 0.654

Question: NCI-H1666 was tested. Which relative viability did it give?
Answer: 0.704

Question: For NCI-H1734, which relative viability is on record?
Answer: 0.514

compound: C[C@@H](C(=O)N[C@@H](C1CCCCC1)C(=O)N2CCC[C@H]2C(=O)N[C@@H]3[C@@H](CC4=CC=CC=C34)OCC#CC#CCO[C@@H]5CC6=CC=CC=C6[C@@H]5NC(=O)[C@@H]7CCCN7C(=O)[C@H](C8CCCCC8)NC(=O)[C@H](C)NC)NC [AZD5582] + CC(C)C[C@H](NC(=O)[C@H](Cc1ccccc1)NC(=O)c1cnccn1)B(O)O [Bortezomib] (partner 0.002 µM); assay: as above; details: first compound 0.001581 µM
Outline: as §1

Question: How did the relative viability turn out when NCI-H23 was run?
Answer: 0.84

Question: How did the relative viability turn out when NCI-H322M was run?
Answer: 1.18

Question: NCI-H441 was tested. Which relative viability did it give?
Answer: 0.379

Question: How did the relative viability turn out when NCI-H460 was run?
Answer: 1.02

Question: For NCI-H520, which relative viability is on record?
Answer: 0.702

Question: Which relative viability does the source give for NCI-H596 here?
Answer: 1.35

Question: With NCI-H647 as the cell line, how does the relative viability read?
Answer: 0.878

Question: With NCI-H650 as the cell line, how does the relative viability read?
Answer: 0.757

Question: NCI-H661 was tested. Which relative viability did it give?
Answer: 0.752

Question: How did the relative viability turn out when NCI-H727 was run?
Answer: 0.761

Question: With NCI-H838 as the cell line, how does the relative viability read?
Answer: 0.809

Question: For NCI-H1355, which relative viability is on record?
Answer: 1.02

Question: With NCI-H1437 as the cell line, how does the relative viability read?
Answer: 0.389

Question: Which relative viability does the source give for NCI-H1650 here?
Answer: 0.166

Question: For NCI-H1651, which relative viability is on record?
Answer: 0.831

Question: Which relative viability does the source give for NCI-H1666 here?
Answer: 0.717

Question: How did the relative viability turn out when NCI-H1734 was run?
Answer: 0.959

same assay, conditions: first compound 0.005 µM

Question: For NCI-H23, which relative viability is on record?
Answer: 1.14

Question: NCI-H322M was tested. Which relative viability did it give?
Answer: 1.37

Question: How did the relative viability turn out when NCI-H441 was run?
Answer: 0.495

Question: For NCI-H460, which relative viability is on record?
Answer: 1.05

Question: NCI-H520 was tested. Which relative viability did it give?
Answer: 0.826

Question: For NCI-H596, which relative viability is on record?
Answer: 1.2

Question: NCI-H647 was tested. Which relative viability did it give?
Answer: 0.907

Question: Which relative viability does the source give for NCI-H650 here?
Answer: 0.654

Question: How did the relative viability turn out when NCI-H661 was run?
Answer: 0.927

Question: NCI-H727 was tested. Which relative viability did it give?
Answer: 0.932

Question: For NCI-H838, which relative viability is on record?
Answer: 1.21

Question: NCI-H1355 was tested. Which relative viability did it give?
Answer: 1.14

Question: Which relative viability does the source give for NCI-H1437 here?
Answer: 0.549

Question: With NCI-H1650 as the cell line, how does the relative viability read?
Answer: 0.192

Question: For NCI-H1651, which relative viability is on record?
Answer: 0.907

Question: How did the relative viability turn out when NCI-H1666 was run?
Answer: 0.805

Question: With NCI-H1734 as the cell line, how does the relative viability read?
Answer: 0.963

same assay, conditions: first compound 0.01581 µM

Question: With NCI-H23 as the cell line, how does the relative viability read?
Answer: 0.913

Question: For NCI-H322M, which relative viability is on record?
Answer: 1.18

Question: NCI-H441 was tested. Which relative viability did it give?
Answer: 0.47

Question: NCI-H460 was tested. Which relative viability did it give?
Answer: 1.06

Question: Which relative viability does the source give for NCI-H520 here?
Answer: 0.432

Question: Which relative viability does the source give for NCI-H596 here?
Answer: 1.13

Question: How did the relative viability turn out when NCI-H647 was run?
Answer: 0.997

Question: Which relative viability does the source give for NCI-H650 here?
Answer: 0.57

Question: How did the relative viability turn out when NCI-H661 was run?
Answer: 0.702

Question: Which relative viability does the source give for NCI-H727 here?
Answer: 0.851

Question: With NCI-H838 as the cell line, how does the relative viability read?
Answer: 0.382

Question: For NCI-H1355, which relative viability is on record?
Answer: 1.11

Question: With NCI-H1437 as the cell line, how does the relative viability read?
Answer: 0.445

Question: For NCI-H1650, which relative viability is on record?
Answer: 0.188

Question: Which relative viability does the source give for NCI-H1651 here?
Answer: 0.87

Question: NCI-H1666 was tested. Which relative viability did it give?
Answer: 0.714

Question: How did the relative viability turn out when NCI-H1734 was run?
Answer: 0.966

same assay, conditions: first compound 0.05 µM

Question: Which relative viability does the source give for NCI-H23 here?
Answer: 0.676

Question: NCI-H322M was tested. Which relative viability did it give?
Answer: 1.41

Question: NCI-H441 was tested. Which relative viability did it give?
Answer: 0.418

Question: For NCI-H460, which relative viability is on record?
Answer: 1.34

Question: Which relative viability does the source give for NCI-H520 here?
Answer: 0.757

Question: Which relative viability does the source give for NCI-H596 here?
Answer: 0.549

Question: With NCI-H647 as the cell line, how does the relative viability read?
Answer: 0.871

Question: Which relative viability does the source give for NCI-H650 here?
Answer: 0.582

Question: With NCI-H661 as the cell line, how does the relative viability read?
Answer: 0.921

Question: How did the relative viability turn out when NCI-H727 was run?
Answer: 1.04

Question: Which relative viability does the source give for NCI-H838 here?
Answer: 0.486

Question: How did the relative viability turn out when NCI-H1355 was run?
Answer: 1.11

Question: With NCI-H1437 as the cell line, how does the relative viability read?
Answer: 0.446

Question: With NCI-H1650 as the cell line, how does the relative viability read?
Answer: 0.169

Question: How did the relative viability turn out when NCI-H1651 was run?
Answer: 0.987

Question: Which relative viability does the source give for NCI-H1666 here?
Answer: 0.73

Question: For NCI-H1734, which relative viability is on record?
Answer: 1.14
